Source: patent publication US20050221317A1, “Use of an epitope of vascular endothelial growth factor receptor kdr/flk-1” (AstraZeneca AB, priority 2002, published 2005)

Target: T1, KDR/Flk-1 receptor epitope Y1214 (Homo sapiens, UniProt P35968)
T1 construct: host or cells: HUVEC (human umbilical vein endothelial cells)
Test: Phosphorylation of the Y1214 epitope of KDR/Flk-1 in VEGF-treated HUVECs (Western blot with anti-Y1214 antibody)
Format: cell-based
Conditions: VEGF-treated HUVEC cell lysate, 0.007-5.0 uM compound, FIG. 1
Method: HUVECs were obtained from TCS Cellworks, Buckingham, UK (Catalogue number ZHS 8965) and cultured in Large Vessel Endothelial Cell Basal Medium+recommended 5 supplements obtained from TCS Cellworks (catalogue numbers ZHM 2951 and ZHS 8965). Cells were used when close to confluence in 3×75 cm^2 tissue culture flasks. Prior to treatment with inhibitor cells were cultured overnight in Basal Medium without supplements.
HUVECS were treated with inhibitors as follows. […] After 82 minutes 50 ng/ml VEGF was added to the cells and the cells incubated for a further 8 minutes at 37° C. After this further incubation the culture medium was removed from the cells and the cells lysed with 2.5 ml sample buffer [Sample buffer: 4 parts NuPage sample buffer (Novex, NP0007, Invitrogen, Paisley, Scotland) to 1 part distilled water]. The lysate was collected, 3 μl of β-mercaptoethanol added and heated to 95° C. for 10 minutes to ensure complete reduction and denaturation. The lysates can be stored at −20° C. until analysed.
Lysates were analysed using SDS polyacrylamide gel electrophoresis (PAGE) to separate the proteins within the lysates. […]
Nitrocellulose membranes were incubated for 1 hour in 5% solution of dried, skimmed milk powder in PBST [Marvel/PBST] at room temperature. […] The light from this is detected by photographic film, for example Kodak Biomax ML.

T1 sequence (P35968 20-1356): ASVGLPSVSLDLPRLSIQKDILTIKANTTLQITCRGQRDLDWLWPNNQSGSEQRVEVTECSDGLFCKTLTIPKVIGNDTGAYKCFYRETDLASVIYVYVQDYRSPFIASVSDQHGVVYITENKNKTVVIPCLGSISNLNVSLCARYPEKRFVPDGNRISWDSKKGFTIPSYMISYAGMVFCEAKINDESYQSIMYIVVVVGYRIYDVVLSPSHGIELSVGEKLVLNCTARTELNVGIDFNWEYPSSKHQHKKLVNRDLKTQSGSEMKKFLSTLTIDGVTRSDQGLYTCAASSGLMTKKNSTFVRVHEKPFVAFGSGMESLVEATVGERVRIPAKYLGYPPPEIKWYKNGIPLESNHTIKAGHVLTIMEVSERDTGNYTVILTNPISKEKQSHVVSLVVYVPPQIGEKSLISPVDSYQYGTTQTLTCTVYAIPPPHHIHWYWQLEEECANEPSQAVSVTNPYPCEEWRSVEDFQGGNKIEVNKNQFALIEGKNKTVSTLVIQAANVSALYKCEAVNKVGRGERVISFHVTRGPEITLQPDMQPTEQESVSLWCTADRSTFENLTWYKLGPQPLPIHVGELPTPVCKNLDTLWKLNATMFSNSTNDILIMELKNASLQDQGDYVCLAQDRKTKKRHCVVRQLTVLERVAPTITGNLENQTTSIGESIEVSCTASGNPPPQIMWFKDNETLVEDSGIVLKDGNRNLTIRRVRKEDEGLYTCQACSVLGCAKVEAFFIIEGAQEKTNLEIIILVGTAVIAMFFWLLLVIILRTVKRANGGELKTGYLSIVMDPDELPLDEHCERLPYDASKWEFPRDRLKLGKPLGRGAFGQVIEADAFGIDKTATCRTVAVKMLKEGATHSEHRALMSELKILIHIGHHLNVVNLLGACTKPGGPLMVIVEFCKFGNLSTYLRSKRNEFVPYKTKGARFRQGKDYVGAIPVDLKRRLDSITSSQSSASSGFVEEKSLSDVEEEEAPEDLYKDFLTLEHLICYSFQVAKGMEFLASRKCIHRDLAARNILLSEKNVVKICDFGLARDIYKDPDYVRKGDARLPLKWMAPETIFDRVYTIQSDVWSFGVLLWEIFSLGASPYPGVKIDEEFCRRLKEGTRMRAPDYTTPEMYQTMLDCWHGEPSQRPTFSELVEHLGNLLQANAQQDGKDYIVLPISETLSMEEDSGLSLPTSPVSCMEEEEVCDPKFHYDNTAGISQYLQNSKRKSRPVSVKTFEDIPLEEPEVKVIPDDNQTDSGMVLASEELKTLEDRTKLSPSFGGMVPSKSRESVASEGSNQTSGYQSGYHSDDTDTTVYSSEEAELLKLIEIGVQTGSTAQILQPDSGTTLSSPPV

Structure (SMILES): COc1cc2c(Oc3ccc4[nH]c(C)cc4c3F)ncnc2cc1OCCCN1CCCCC1 [4[(4-fluoro-2-methyl-1H-indol-5-yl)oxy]-6-methoxy-7-(3-piperidin-1-ylpropoxy)quinazoline]
- phosphorylation of the Y1214 epitope: dose dependent decrease in phosporylation
